# Data taken from article PMC3566787, “Efficient synthesis of phenylene-ethynylene rods and their use as rigid spacers in divalent inhibitors” (Beilstein Journal of Organic Chemistry, 2013).
# Target: T1, LecA (Pseudomonas aeruginosa, UniProt Q05097)
# T1 construct: FITC-labeled LecA
# Assay: ELISA-type competition assay on a glycochip: inhibition of FITC-labeled LecA binding to a galactoside-functionalized surface
# T1 sequence (Q05097 2-122): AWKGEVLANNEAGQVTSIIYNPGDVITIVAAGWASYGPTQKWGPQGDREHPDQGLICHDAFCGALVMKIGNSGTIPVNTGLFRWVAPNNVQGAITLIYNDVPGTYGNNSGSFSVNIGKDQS
smiles,measurement,value
"COCCOCCOc1cc(C#Cc2cc(OCCOCCOC)c(-c3cn(CCCO[C@@H]4O[C@H](CO)[C@H](O)[C@H](O)[C@H]4O)nn3)cc2OCCOCCOC)c(OCCOCCOC)cc1C#Cc1cc(OCCOCCOC)c(-c2cn(CCCO[C@@H]3O[C@H](CO)[C@H](O)[C@H](O)[C@H]3O)nn2)cc1OCCOCCOC [compound 22, divalent ligand 22]",IC50,900 nM
